Source: US8999940B2 (Ipsen Pharma S.A.S., priority 2008, dated 2015)

Experiments:
[1] = target: T1, human recombinant GIP receptor (Homo sapiens, UniProt P48546); experiment: In vitro hGIP receptor binding assay
T1 construct: expressed in transfected cells; host or cells: CHO-K1 clonal cells (membrane preparation)
T1 sequence (P48546 22-466): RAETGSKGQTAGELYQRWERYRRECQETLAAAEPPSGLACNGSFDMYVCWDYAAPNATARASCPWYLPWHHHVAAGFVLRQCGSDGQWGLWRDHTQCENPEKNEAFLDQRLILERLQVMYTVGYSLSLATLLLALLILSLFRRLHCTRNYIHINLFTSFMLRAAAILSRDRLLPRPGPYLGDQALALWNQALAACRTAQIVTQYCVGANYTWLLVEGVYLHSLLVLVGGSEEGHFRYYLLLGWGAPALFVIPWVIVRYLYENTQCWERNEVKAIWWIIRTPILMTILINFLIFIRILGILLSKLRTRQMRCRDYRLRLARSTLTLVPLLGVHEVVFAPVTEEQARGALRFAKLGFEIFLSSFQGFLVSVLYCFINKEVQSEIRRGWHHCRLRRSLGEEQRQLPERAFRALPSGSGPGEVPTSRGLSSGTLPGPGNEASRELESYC
Procedure: A. In Vitro hGIP Receptor Binding Assay […] The incubations were terminated by rapid filtration through GF/C filters (pre-soaked in 0.5% polyethylenimine) using a Brandel filtration manifold. Each tube and filter were then washed three times with 5-ml aliquots of ice-cold buffer.

[2] = Human plasma half-life assay; type: in vitro ADME; conditions: 37° C., LC-MS, read-out: Human Plasma T½ (converted)
[3] = Rat plasma half-life assay; type: in vitro ADME; conditions: 37° C., LC-MS, read-out: Rat Plasma T½ (converted)

SMILES | Ki [1] [nM] | half-life at 0.1 mg/ml [2] [min] | half-life at 0.1 mg/ml [3] [min]
CC[C@H](C)[C@H](NC(=O)[C@H](CCCCN)NC(=O)[C@H](CC(=O)O)NC(=O)[C@H](CCSC)NC(=O)[C@H](C)NC(=O)[C@@H](NC(=O)C1(NC(=O)[C@H](Cc2ccc(O)cc2)NC(=O)[C@H](CC(=O)O)NC(=O)[C@H](CO)NC(=O)[C@@H](NC(=O)[C@H](Cc2ccccc2)NC(=O)[C@@H](NC(=O)CNC(=O)[C@H](CCC(=O)O)NC(=O)C(C)(C)NC(=O)[C@@H](N)Cc2c(C)cc(O)cc2C)[C@@H](C)O)[C@@H](C)CC)CCCC1)[C@@H](C)CC)C(=O)N[C@@H](Cc1c[nH]cn1)C(=O)N[C@@H](CCC(N)=O)C(=O)N[C@@H](CCC(N)=O)C(=O)N[C@@H](CC(=O)O)C(=O)N[C@@H](Cc1ccccc1)C(=O)N[C@H](C(=O)N[C@@H](CC(N)=O)C(=O)N[C@@H](Cc1c[nH]c2ccccc12)C(=O)N[C@@H](CC(C)C)C(=O)N[C@@H](CC(C)C)C(=O)N[C@@H](C)C(=O)N[C@@H](CCC(N)=O)C(=O)N[C@@H](CCCCN)C(=O)NCC(=O)N[C@@H](CCCCN)C(=O)N[C@@H](CCCCN)C(=O)N[C@@H](CC(N)=O)C(=O)N[C@@H](CC(=O)O)C(=O)N[C@@H](Cc1c[nH]c2ccccc12)C(=O)N[C@@H](CCCCN)C(=O)N[C@@H](Cc1c[nH]cn1)C(=O)N[C@@H](CC(N)=O)C(=O)N[C@H](C(=O)NC1(C(=O)N[C@@H](CCC(N)=O)C(=O)O)CCCC1)[C@@H](C)CC)C(C)C [Example 30, (2,6Me-Tyr^1, Aib^2, A5c^11, 41)hGIP(1-42)-OH] | 1.03 | 1660 | 432
CC[C@H](C)[C@H](NC(=O)[C@H](CCCCN)NC(=O)[C@H](CC(=O)O)NC(=O)[C@H](CCSC)NC(=O)[C@H](C)NC(=O)[C@@H](NC(=O)C1(NC(=O)[C@H](Cc2ccc(O)cc2)NC(=O)[C@H](CC(=O)O)NC(=O)[C@H](CO)NC(=O)[C@@H](NC(=O)[C@H](Cc2ccccc2)NC(=O)[C@@H](NC(=O)CNC(=O)[C@H](CCC(=O)O)NC(=O)C(C)(C)NC(=O)[C@@H](N)Cc2ccc(OC)cc2)[C@@H](C)O)[C@@H](C)CC)CCCC1)[C@@H](C)CC)C(=O)N[C@@H](Cc1c[nH]cn1)C(=O)N[C@@H](CCC(N)=O)C(=O)N[C@@H](CCC(N)=O)C(=O)N[C@@H](CC(=O)O)C(=O)N[C@@H](Cc1ccccc1)C(=O)N[C@H](C(=O)N[C@@H](CC(N)=O)C(=O)N[C@@H](Cc1c[nH]c2ccccc12)C(=O)N[C@@H](CC(C)C)C(=O)N[C@@H](CC(C)C)C(=O)N[C@@H](C)C(=O)N[C@@H](CCC(N)=O)C(=O)N[C@@H](CCCCN)C(=O)NCC(=O)N[C@@H](CCCCN)C(=O)N[C@@H](CCCCN)C(=O)N[C@@H](CC(N)=O)C(=O)N[C@@H](CC(=O)O)C(=O)N[C@@H](Cc1c[nH]c2ccccc12)C(=O)N[C@@H](CCCCN)C(=O)N[C@@H](Cc1c[nH]cn1)C(=O)N[C@@H](CC(N)=O)C(=O)N[C@H](C(=O)NC1(C(=O)N[C@@H](CCC(N)=O)C(=O)O)CCCC1)[C@@H](C)CC)C(C)C [Example 31, [Tyr(Me)^1, Aib^2, A5c^11, 41]hGIP(1-42)-OH] | 4.5 | 2090 | 582
CC[C@H](C)[C@H](NC(=O)[C@H](CCCCN)NC(=O)[C@H](CC(=O)O)NC(=O)[C@H](CCSC)NC(=O)[C@H](C)NC(=O)[C@@H](NC(=O)C1(NC(=O)[C@H](Cc2ccc(O)cc2)NC(=O)[C@H](CC(=O)O)NC(=O)[C@H](CO)NC(=O)[C@@H](NC(=O)[C@H](Cc2ccccc2)NC(=O)[C@@H](NC(=O)CNC(=O)[C@H](CCC(=O)O)NC(=O)C(C)(C)NC(=O)[C@@H](N)Cc2ccc(F)cc2)[C@@H](C)O)[C@@H](C)CC)CCCC1)[C@@H](C)CC)C(=O)N[C@@H](Cc1c[nH]cn1)C(=O)N[C@@H](CCC(N)=O)C(=O)N[C@@H](CCC(N)=O)C(=O)N[C@@H](CC(=O)O)C(=O)N[C@@H](Cc1ccccc1)C(=O)N[C@H](C(=O)N[C@@H](CC(N)=O)C(=O)N[C@@H](Cc1c[nH]c2ccccc12)C(=O)N[C@@H](CC(C)C)C(=O)N[C@@H](CC(C)C)C(=O)N[C@@H](C)C(=O)N[C@@H](CCC(N)=O)C(=O)N[C@@H](CCCCN)C(=O)NCC(=O)N[C@@H](CCCCN)C(=O)N[C@@H](CCCCN)C(=O)N[C@@H](CC(N)=O)C(=O)N[C@@H](CC(=O)O)C(=O)N[C@@H](Cc1c[nH]c2ccccc12)C(=O)N[C@@H](CCCCN)C(=O)N[C@@H](Cc1c[nH]cn1)C(=O)N[C@@H](CC(N)=O)C(=O)N[C@H](C(=O)NC1(C(=O)N[C@@H](CCC(N)=O)C(=O)O)CCCC1)[C@@H](C)CC)C(C)C [Example 32, (4F-Phe^1, Aib^2, A5c^11, 41)hGIP(1-42)-OH] | 5.82 | 1430 | > 3660
CC[C@H](C)[C@H](NC(=O)[C@H](CCCCN)NC(=O)[C@H](CC(=O)O)NC(=O)[C@H](CCSC)NC(=O)[C@H](C)NC(=O)[C@@H](NC(=O)C1(NC(=O)[C@H](Cc2ccc(O)cc2)NC(=O)[C@H](CC(=O)O)NC(=O)[C@H](CO)NC(=O)[C@@H](NC(=O)[C@H](Cc2ccccc2)NC(=O)[C@@H](NC(=O)CNC(=O)[C@H](CCC(=O)O)NC(=O)C(C)(C)NC(=O)[C@@H](N)Cc2ccncc2)[C@@H](C)O)[C@@H](C)CC)CCCC1)[C@@H](C)CC)C(=O)N[C@@H](Cc1c[nH]cn1)C(=O)N[C@@H](CCC(N)=O)C(=O)N[C@@H](CCC(N)=O)C(=O)N[C@@H](CC(=O)O)C(=O)N[C@@H](Cc1ccccc1)C(=O)N[C@H](C(=O)N[C@@H](CC(N)=O)C(=O)N[C@@H](Cc1c[nH]c2ccccc12)C(=O)N[C@@H](CC(C)C)C(=O)N[C@@H](CC(C)C)C(=O)N[C@@H](C)C(=O)N[C@@H](CCC(N)=O)C(=O)N[C@@H](CCCCN)C(=O)NCC(=O)N[C@@H](CCCCN)C(=O)N[C@@H](CCCCN)C(=O)N[C@@H](CC(N)=O)C(=O)N[C@@H](CC(=O)O)C(=O)N[C@@H](Cc1c[nH]c2ccccc12)C(=O)N[C@@H](CCCCN)C(=O)N[C@@H](Cc1c[nH]cn1)C(=O)N[C@@H](CC(N)=O)C(=O)N[C@H](C(=O)NC1(C(=O)N[C@@H](CCC(N)=O)C(=O)O)CCCC1)[C@@H](C)CC)C(C)C [Example 33, (4-Pal^1, Aib^2, A5c^11, 41)hGIP(1-42)-OH] | 8.14 | 1970 | 930
CC[C@H](C)[C@H](NC(=O)[C@H](CCCCN)NC(=O)[C@H](CC(=O)O)NC(=O)[C@H](CCSC)NC(=O)[C@H](C)NC(=O)[C@@H](NC(=O)C1(NC(=O)[C@H](Cc2ccc(O)cc2)NC(=O)[C@H](CC(=O)O)NC(=O)[C@H](CO)NC(=O)[C@@H](NC(=O)[C@H](Cc2ccccc2)NC(=O)[C@@H](NC(=O)CNC(=O)[C@H](CCC(=O)O)NC(=O)C(C)(C)NC(=O)[C@@H](N)Cc2cccnc2)[C@@H](C)O)[C@@H](C)CC)CCCC1)[C@@H](C)CC)C(=O)N[C@@H](Cc1c[nH]cn1)C(=O)N[C@@H](CCC(N)=O)C(=O)N[C@@H](CCC(N)=O)C(=O)N[C@@H](CC(=O)O)C(=O)N[C@@H](Cc1ccccc1)C(=O)N[C@H](C(=O)N[C@@H](CC(N)=O)C(=O)N[C@@H](Cc1c[nH]c2ccccc12)C(=O)N[C@@H](CC(C)C)C(=O)N[C@@H](CC(C)C)C(=O)N[C@@H](C)C(=O)N[C@@H](CCC(N)=O)C(=O)N[C@@H](CCCCN)C(=O)NCC(=O)N[C@@H](CCCCN)C(=O)N[C@@H](CCCCN)C(=O)N[C@@H](CC(N)=O)C(=O)N[C@@H](CC(=O)O)C(=O)N[C@@H](Cc1c[nH]c2ccccc12)C(=O)N[C@@H](CCCCN)C(=O)N[C@@H](Cc1c[nH]cn1)C(=O)N[C@@H](CC(N)=O)C(=O)N[C@H](C(=O)NC1(C(=O)N[C@@H](CCC(N)=O)C(=O)O)CCCC1)[C@@H](C)CC)C(C)C [Example 34, (3-Pal^1, Aib^2, A5c^11, 41)hGIP(1-42)-OH] | 9.75 | > 3780 | 978
